From patent publication US11008325B2, “Inhibitors of cancer invasion, attachment, and/or metastasis” (VIRGINIA COMMONWEALTH UNIVERSITY, priority 2016, dated 2021)
Like-named read-outs stand apart in the source and are kept apart here.

Experiments:
ARCaPM-Luc cells = experiment: PDZ1i pre-treated ARCaPM-Luc cells injected intravenously; format: in vivo, athymic nude mice
Procedure: FIG. 19A-19F. PDZ1i suppresses prostate cancer metastasis and tumor progression. FIG. 19A) Survival data for athymic nude mice in which DMSO or PDZ1i pre-treated ARCaPM cells were injected. FIG. 19B) Survival data for athymic nude mice which were injected with (n=5, each group) ARCaPM-Luc (1×10^6 cells in 100 μl saline) through an intracardiac route. Mice received either vehicle or PDZ1i every alternative day (9 injections during the first three months) and maintained until they needed to be euthanized. FIG. 19C) Survival data for C57BL/6 mice injected through the intracardiac route with RM1-Luc. Vehicle or PDZ1i was administered through intraperitoneal injection every alternate day (total 3 injections during the first week). Survival curves were generated using 6 control vehicle-treated and 5 PDZ1i-treated. Kaplan—Meier survival curves were prepared using Graph Pad software. […] Graphical representation of the average prostate weights from control and treated groups. FIG. 19E and FIG. 19F) Photomicrographs representing the histological changes in prostate sections obtained from 6-month old Hi-Myc mice receiving either vehicle (FIG. 19E) or PDZ1i (FIG. 19F).
To evaluate potential therapeutic efficacy of PDZ1i four sets of in vivo experiments were conducted. […]

U87-EGFRvIII cells = experiment: immunoblot of EGFRvIII/FAK/NF-kB signaling with radiation; format: cell-based, human
Procedure: FIGS. 9A-9C. PDZ1i treatment impairs EGFRvIII and FAK signaling, as well as EGFRvIII-MDA-9 interaction. FIG. 9A. Immunoblot analysis showing expression of mutated EGFR in U87 or U87EGFRvIII cells. FIG. 9B. Cells were treated with either DMSO or PDZ1i 2 hrs prior to radiation. These cells were subsequently seeded on fibronectin-coated plates and cell lysates were collected after 1 hr and analyzed for protein expression. FIG. 9C. Lysates from cells treated with and without radiation or PDZ1i as indicated were analyzed via immunoprecipitation. Anti-MDA-9, top, and anti-EGFR, bottom, were used to pull down associated complexes, and western blotting was performed with the indicated antibodies. Left lanes include IgG and control input samples.
PDZ1i inhibits EGFRvIII-driven signaling in GBM and reduces MMP secretion. EGFR amplification and mutation is both a common and important alteration in GBM. A particular mutation of this receptor, EGFRvIII, is often co-expressed along with EGFR amplification in GBM. […] U87 cells stably expressing EGFRvIII, U87-EGFRvIII (FIG. 9), were treated with PDZ1i prior to radiation. […]
Preparation of whole-cell lysates and Western blotting analysis was performed as described (5). For densitometry evaluation, X-ray films were scanned and analyzed with ImageJ software (NIH).

[1] = target: T1, MDA-9/Syntenin and c-Src interactions (Homo sapiens, UniProt O00560); experiment: co-immunoprecipitation in C8161.9 cells; format: cell-based
T1 construct: endogenous in cells; host or cells: C8161.9 melanoma cells
T1 sequence (O00560 2-298 limits assumed): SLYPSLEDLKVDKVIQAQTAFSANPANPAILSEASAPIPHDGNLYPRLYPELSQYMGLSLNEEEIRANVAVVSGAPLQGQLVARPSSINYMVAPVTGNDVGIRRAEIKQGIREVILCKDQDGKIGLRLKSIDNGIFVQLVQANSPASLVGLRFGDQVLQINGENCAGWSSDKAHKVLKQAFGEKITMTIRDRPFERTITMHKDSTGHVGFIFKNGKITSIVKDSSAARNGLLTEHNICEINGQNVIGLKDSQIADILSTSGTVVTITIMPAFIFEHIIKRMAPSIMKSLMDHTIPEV
T1 sequence (P12931 2-536 partner limits assumed): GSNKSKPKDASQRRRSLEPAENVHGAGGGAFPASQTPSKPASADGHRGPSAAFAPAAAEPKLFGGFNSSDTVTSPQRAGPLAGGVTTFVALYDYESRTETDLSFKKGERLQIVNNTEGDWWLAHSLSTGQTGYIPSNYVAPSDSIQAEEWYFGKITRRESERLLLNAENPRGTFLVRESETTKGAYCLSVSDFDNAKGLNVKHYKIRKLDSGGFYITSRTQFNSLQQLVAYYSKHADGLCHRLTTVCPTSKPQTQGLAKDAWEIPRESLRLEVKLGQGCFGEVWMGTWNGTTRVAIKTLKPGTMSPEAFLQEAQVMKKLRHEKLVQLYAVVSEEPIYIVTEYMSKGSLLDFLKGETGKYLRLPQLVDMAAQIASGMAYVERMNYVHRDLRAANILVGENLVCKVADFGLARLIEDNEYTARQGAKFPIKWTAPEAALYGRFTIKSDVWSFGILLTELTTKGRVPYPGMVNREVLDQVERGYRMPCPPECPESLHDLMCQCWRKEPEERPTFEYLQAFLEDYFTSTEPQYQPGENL
Procedure: FIG. 54. Effects of PDZ1in (113B7) on MDA-9/Syntenin and c-Src interactions. C8161.9 cells were pre-treated with either DMSO or a dose of 113B7 (as indicated) and re-plated onto fibronectin-coated plates. After 30 minutes, cell lysates were immunoprecipitated and immuneblotted with the indicated antibodies. IgG, immunoglobulin.
Another fundamental issue that we will address as part of the proposed hit-to-lead optimization process is the specificity of the binding of 113B7 to the PDZ1 domain of MDA-9/Syntenin. […] To determine if the PDZin molecule alters physical binding we performed co-immunoprecipitation analysis with c-Src and MDA-9/Syntenin in the presence or absence of 113B7 (FIG. 54). In the case of 113B7, which binds to PDZ1 and the interdomain of MDA-9/Syntenin, no inhibition of c-Src binding was evident.

[2] = pharmacokinetics after IV and IP administration; format: in vivo, Balb/c mice; conditions: for concentration at 0.25 h: 0.250 h
[3] = Balb/c, mouse, plasma, IP 30 mg/kg
[4] = Balb/c, mouse, plasma, IP 30 mg/kg, read-out: Plasma Concentration, Mean IP
[5] = Balb/c, mouse, plasma, IV 3 mg/kg, read-out: Plasma Concentration, Mean IV

In the case of `Cc1cc(NC(=O)c2nc3[nH]c4c(c(=O)n3n2)CCC4)c(C)cc1NC(=O)CCc1nnc(-c2ccccc2)o1` [113B7, N-(2,5-dimethyl-4-(3-(5-phenyl-1,3,4-oxadiazol-2-yl)propanamido)phenyl)-8-oxo-5,6,7,8-tetrahydro-4H-cyclopenta[d][1,2,4]triazolo[1,5-a]pyrimidine-2-carboxamide], the “cancer cell concentrations in the lungs” value (ARCaPM-Luc cells; cells pre-treated with 50 μM PDZ1i) was “lower cancer cell concentrations in the lungs”, the survival (ARCaPM-Luc cells; cells pre-treated with PDZ1i) was “survived longer” and the “FAK activation after radiation” value (U87-EGFRvIII cells; PDZ1i prior to radiation) was “nullified”. The phospho-EGFR (U87-EGFRvIII cells; radiated and non-radiated cells) was “significantly reduced”, the “c-Src binding to MDA-9/Syntenin” value [1] was “no inhibition” and the “signs of toxicity during the PK experiment” value ([2]; 3.0 mg/Kg IV and 30.0 mg/Kg IP, mice) was “lack of adverse signs of toxicity”. The half-life ([2]; Balb/c, mouse, intravenous, intraperitoneal, in each route: 3.0 mg/Kg IV and 30.0 mg/Kg IP, mice, serum, read-out: T1/2 (very slow clearance)) was over 9 h, the bioavailability ([2]; Balb/c, mouse, plasma, intraperitoneal, 30 mg/kg, IP 30 mg/kg versus IV 3 mg/kg, read-out: Bioavailability (IP/IV)) was 81.2% and the AUC ([2]; Balb/c, mouse, plasma, ip, 30 mg/kg, IP 30 mg/kg, read-out: AUC0-int (first line)) was 975 µg·h/mL. It also gave an AUC ([2]; Balb/c, mouse, plasma, ip, 30 mg/kg, IP 30 mg/kg, read-out: AUC0-int (second line)) of 1180 µg·h/mL, an AUC ([2]; Balb/c, mouse, plasma, iv, 3 mg/kg, IV 3 mg/kg, read-out: AUC0-int (first line)) of 120 µg·h/mL and an AUC ([2]; Balb/c, mouse, plasma, iv, 3 mg/kg, IV 3 mg/kg, read-out: AUC0-int (second line)) of 124 µg·h/mL. The Cmax [2, 3] was 98200 ng/mL, the Tmax [2, 3] was 0.25 h and the concentration at 0.25 h [2, 4] was 98200 ng/mL. It also gave a concentration at 1 h [2, 4] of 69200 ng/mL, a concentration at 2 h [2, 4] of 59000 ng/mL and a concentration at 6 h [2, 4] of 54600 ng/mL. For the same compound, the concentration at 12 h [2, 4] was 42800 ng/mL, the concentration at 24 h [2, 4] was 15100 ng/mL and the half-life ([2]; Balb/c, mouse, plasma, IP 30 mg/kg, read-out: T1/2 (converted)) was 9.42 h. For the same compound, the C0 ([2]; Balb/c, mouse, plasma, IV 3 mg/kg) was 35000 ng/mL, the concentration at 0.25 h [2, 5] was 29500 ng/mL and the concentration at 1 h [2, 5] was 17700 ng/mL. The concentration at 2 h [2, 5] was 11600 ng/mL, the concentration at 6 h [2, 5] was 6110 ng/mL and the concentration at 12 h [2, 5] was 3360 ng/mL. It also gave a concentration at 24 h [2, 5] of 541 ng/mL, a half-life ([2]; Balb/c, mouse, plasma, IV 3 mg/kg, read-out: T1/2 (converted)) of 5.06 h and a half-life ([2]; Balb/c, mouse, serum, intravenous and intraperitoneal, in vivo, read-out: half-life (t1/2) (converted)) of 9 h. For the same compound, the bioavailability ([2]; Balb/c, mouse, serum, ip, 30 mg/kg, administered I.P. 30.0 mg/Kg, mice, read-out: bioavailability) was 80% and the bioavailability ([2]; administered I.P. 30.0 mg/Kg, mice, 30 mg/kg) was about 100%.
